According to the supplement of paper PMC10307832:

How the values were obtained:
Experiment in all cases: relative viability (nuclei count vs DMSO), 5 days (fraction); higher = more cells survive
Decitabine = compound: Nc1ncn([C@H]2C[C@H](O)[C@@H](CO)O2)c(=O)n1 [Decitabine]
Outline: (§1)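 For viability, nuclei in each treated well were divided by nuclei in vehicle wells and the median across plates was taken. Lung cancer cell lines in 1536-well plates were pinned with five library-drug doses (not always all listed) spaced by √10, cultured 5 days without medium change, and imaged at 4× after Hoechst staining, with plates passing only at control CV below 25% and at least one doubling.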

Halofuginone = compound: O=C(C[C@H]1NCCC[C@@H]1O)Cn1cnc2cc(Br)c(Cl)cc2c1=O (racemic) [Halofuginone]
Outline: as §1

Cediranib = compound: COc1cc2c(Oc3ccc4[nH]c(C)cc4c3F)ncnc2cc1OCCCN1CCCC1 [Cediranib]
Outline: as §1

| Cell Line | relative viability (Decitabine; 0.04 µM) | relative viability (Decitabine; 0.1265 µM) | relative viability (Decitabine; 0.4 µM) | relative viability (Decitabine; 1.265 µM) | relative viability (Decitabine; 2 µM, anchor plate) | relative viability (Decitabine; 4 µM) | relative viability (Halofuginone; 0.001 µM) | relative viability (Halofuginone; 0.003162 µM) | relative viability (Halofuginone; 0.01 µM) | relative viability (Halofuginone; 0.03162 µM) | relative viability (Halofuginone; 0.1 µM) | relative viability (Cediranib; 0.04 µM) | relative viability (Cediranib; 0.1265 µM) | relative viability (Cediranib; 0.4 µM) | relative viability (Cediranib; 1.265 µM) | relative viability (Cediranib; 4 µM) |
| --- | --- | --- | --- | --- | --- | --- | --- | --- | --- | --- | --- | --- | --- | --- | --- | --- |
| 201T | 0.981 | 1.02 | 1.04 | 0.612 | 0.855 | 0.953 | 0.97 | 0.967 | 0.952 | 0.933 | 0.803 | 1.04 | 1.1 | 0.911 | 0.956 | 0.974 |
| A549 | 0.858 | 0.724 | 0.554 | 0.174 | 0.265 | 0.159 | 1.03 | 0.972 | 0.975 | 0.766 | 0.385 | 0.929 | 0.953 | 0.889 | 0.897 | 0.996 |
| A-427 | 0.668 | 0.612 | 0.322 | 0.322 | 0.558 | 0.292 | 1.02 | 1.04 | 0.89 | 0.989 | 0.921 | 1.01 |  | 0.951 | 0.943 | 1.07 |
| ABC-1 | 0.804 | 0.97 | 0.758 | 0.733 | 1.12 | 0.67 | 0.939 | 1.02 | 0.881 | 0.934 | 0.77 | 0.995 | 1.11 | 0.851 | 0.759 | 0.92 |
| BEN | 0.848 | 0.853 | 0.663 | 0.587 | 0.771 | 0.505 | 0.993 | 1.05 | 1.05 | 1.03 | 0.65 | 1.07 | 0.643 | 0.903 | 0.758 | 0.931 |
| CAL-12T | 0.726 | 0.843 | 0.502 | 0.548 |  | 0.461 | 1.03 | 1.02 | 1.03 | 1.12 | 0.85 | 1 | 0.974 | 0.937 | 1.01 | 1.01 |
| COR-L23 | 0.677 | 0.629 | 0.484 | 0.379 | 0.441 | 0.308 | 1.14 | 1.02 | 0.982 | 0.931 | 0.268 | 1.06 | 0.957 | 0.914 | 1 | 1.27 |
| COR-L 105 | 0.666 | 0.798 | 0.711 | 0.648 | 0.696 | 0.577 | 1.07 | 0.955 | 0.874 | 0.824 | 0.711 | 0.862 | 0.911 | 0.944 | 0.889 | 0.923 |
| Calu-6 | 0.785 | 0.644 | 0.383 | 0.301 |  | 0.272 | 1.08 | 1.04 | 1 | 0.633 | 0.279 | 0.982 | 1.03 | 0.977 | 1.04 | 1.03 |
| ChaGo-K-1 | 0.933 | 0.816 | 0.537 | 0.482 | 0.537 | 0.477 | 0.995 | 0.968 | 0.916 | 0.967 | 1.03 | 0.965 | 0.733 | 0.952 | 1.1 | 0.997 |
| EBC-1 | 0.626 | 0.456 | 0.313 | 0.272 |  | 0.246 | 1.06 | 0.946 | 0.829 | 0.496 | 0.231 | 0.999 | 0.946 | 0.971 | 1.01 | 1.19 |
| EKVX | 0.71 | 0.809 | 0.647 | 0.418 | 0.358 | 0.375 | 1.06 | 0.928 | 0.989 | 1 | 0.858 | 1.05 | 0.929 | 0.888 | 0.844 | 1.03 |
| EMC-BAC-2 |  | 1.04 | 0.817 | 0.726 | 0.976 | 0.685 | 1.07 | 0.977 | 1.13 | 0.926 | 0.595 | 0.957 | 0.753 | 0.913 | 0.933 | 1.09 |
| EPLC-272H | 0.6 | 0.749 |  | 0.46 | 0.386 | 0.407 | 1.07 | 1.02 | 0.921 | 1.01 | 0.889 | 0.77 |  | 0.915 | 0.792 | 0.975 |
| H3255 | 0.636 | 0.857 | 0.702 | 0.668 | 0.657 | 0.666 | 1.07 | 0.99 | 0.88 | 0.95 | 0.992 | 1.1 | 0.859 | 0.964 | 0.938 | 0.986 |
| HARA | 0.79 | 0.818 | 0.482 | 0.381 | 0.519 | 0.374 | 0.963 | 0.927 | 0.915 | 1.12 | 0.827 | 0.908 | 1.01 | 0.878 | 1.05 | 1.01 |
| HCC-15 | 0.915 | 0.917 | 0.419 | 0.483 | 0.661 | 0.508 | 0.991 | 1.14 | 0.981 | 0.979 | 0.842 | 1.03 |  | 0.948 | 1.08 | 1 |
| HCC-44 | 0.924 | 0.985 | 0.348 | 0.545 | 0.938 | 0.639 | 0.988 | 0.98 | 0.972 | 0.953 | 0.8 | 0.996 |  | 0.945 | 0.959 | 0.983 |
| HCC-78 | 0.877 | 0.816 | 0.673 | 0.541 | 0.706 | 0.47 | 1.07 | 0.961 | 0.958 | 1.06 | 0.879 | 0.963 | 1.05 | 0.965 | 1.03 | 1 |
| HCC-366 | 1.03 | 0.977 | 0.546 | 0.241 | 0.344 | 0.155 | 1.02 | 1.05 | 1 | 0.963 | 1.01 | 1.1 | 1.02 | 0.993 | 1.02 | 1 |
| HCC-827 | 0.306 | 0.483 | 0.398 | 0.288 | 0.325 | 0.377 | 1.07 | 1.04 | 0.976 | 1.03 | 0.939 | 1.19 |  | 1.02 | 1.04 | 1.03 |
| HOP-62 | 0.631 | 0.472 | 0.253 | 0.165 | 0.212 | 0.199 | 0.964 | 1.11 | 1.01 | 0.863 | 0.69 | 1.07 | 0.695 | 0.892 | 0.983 | 1.08 |
